Six compounds from ChEMBL document CHEMBL4334498, “Structures, NMR Spectroscopic Features, and Cytotoxic Properties of Oligomeric Hellinoyl (m-GO-m-GOG)-Type Ellagitannins from the Galls of Tamarix aphylla” (J Nat Prod, 2019) can be followed below.

The structures appear in SMILES notation.

The subject of series [1] is Ca9-22. In words: Cytotoxicity against human Ca9-22 cells assessed as reduction in cell viability incubated for 48 hrs by MTT assay. In kind it is functional. To be noted: Ca9-22, 48 h.
Series [2] in a line: Cytotoxicity against human Pulp Cell cells assessed as reduction in cell viability incubated for 48 hrs by MTT assay. In kind it is cell-based. Background: Tetrazolium assays rely on reduction of a dye to a coloured formazan, in cell work by metabolically active cells.
A short description of series [3]: Cytotoxicity against human HGF cells assessed as reduction in cell viability incubated for 48 hrs by MTT assay. In kind it is cell-based.
For series [4], the system named is HSC-2. In words: Cytotoxicity against human HSC2 cells assessed as reduction in cell viability incubated for 48 hrs by MTT assay. In kind it is functional. To be noted: HSC-2, 48 h.
Series [5] can be described thus: Cytotoxicity against human HPLF cells assessed as reduction in cell viability incubated for 48 hrs by MTT assay. In kind it is cell-based.
Series [6] has as its system HSC-4. In words: Cytotoxicity against human HSC4 cells assessed as reduction in cell viability incubated for 48 hrs by MTT assay. In kind it is functional. To be noted: HSC-4, 48 h.

In the case of `O=C(O)c1cc(O)c(O)c(Oc2c(C(=O)O)cc(Oc3c(C(=O)O)cc(O)c(O)c3O)c(O)c2O)c1`, the half-maximal cytotoxic concentration (CC50) (as a rule, the concentration giving 50% cytotoxicity) in series [1] stood at 345 µM; in series [4], 246 µM; in series [6], 153 µM. Also, the CC50 at 48 h in series [2], in series [3] and in series [5] was > 395 µM each time.

As to `O=C(O[C@@H]1O[C@@H]2COC(=O)c3cc(O)c(O)c(O)c3-c3c(cc(O)c(O)c3O)C(=O)O[C@H]2[C@H](OC(=O)c2cc(O)c(O)c(O)c2)[C@H]1OC(=O)c1cc(O)c(O)c(O)c1Oc1cc(C(=O)O[C@@H]2O[C@@H]3COC(=O)c4cc(O)c(O)c(O)c4-c4c(cc(O)c(O)c4O)C(=O)O[C@H]3[C@H](OC(=O)c3cc(O)c(O)c(O)c3)[C@H]2OC(=O)c2cc(O)c(O)c(O)c2Oc2cc3c(c(O)c2O)Oc2cc(cc(O)c2O)C(=O)O[C@@H]2O[C@@H]4COC(=O)c5cc(O)c(O)c(O)c5-c5c(cc(O)c(O)c5O)C(=O)O[C@H]4[C@H](OC(=O)c4cc(O)c(O)c(O)c4)[C@H]2OC3=O)cc(O)c1O)c1cc(O)c(O)c(Oc2c(C(=O)O[C@H]3C(O)O[C@@H]4COC(=O)c5cc(O)c(O)c(O)c5-c5c(cc(O)c(O)c5O)C(=O)O[C@H]4[C@@H]3OC(=O)c3cc(O)c(O)c(O)c3)cc(O)c(O)c2O)c1` (stereo not given in full), the CC50 in series [1] worked out at 35 µM; in series [4], 25 µM; in series [6], 24 µM. Moreover, the CC50 at 48 h in series [2], in series [3] and in series [5] was > 56 µM each time.

As for `O=C(O[C@@H]1O[C@@H]2COC(=O)c3cc(O)c(O)c(O)c3-c3c(cc(O)c(O)c3O)C(=O)O[C@H]2[C@H](OC(=O)c2cc(O)c(O)c(O)c2)[C@H]1OC(=O)c1cc(O)c(O)c(O)c1Oc1cc2c(c(O)c1O)Oc1cc(cc(O)c1O)C(=O)O[C@@H]1O[C@@H]3COC(=O)c4cc(O)c(O)c(O)c4-c4c(cc(O)c(O)c4O)C(=O)O[C@H]3[C@H](OC(=O)c3cc(O)c(O)c(O)c3)[C@H]1OC2=O)c1cc(O)c(O)c(Oc2c(C(=O)O[C@H]3C(O)O[C@@H]4COC(=O)c5cc(O)c(O)c(O)c5-c5c(cc(O)c(O)c5O)C(=O)O[C@H]4[C@@H]3OC(=O)c3cc(O)c(O)c(O)c3)cc(O)c(O)c2O)c1` (stereo not given in full), the CC50 stood at 27 µM in series [1], 23 µM in series [4] and 26 µM in series [6]. For the same compound, the CC50 at 48 h in series [2], in series [3] and in series [5] was > 75 µM throughout.

On to `O=C(OC[C@H]1O[C@H]2OC(=O)c3cc(O)c(O)c(c3)Oc3c(cc(Oc4c(C(=O)O[C@H]5[C@H](OC(=O)c6cc(O)c(O)c(O)c6)O[C@@H]6COC(=O)c7cc(O)c(O)c(O)c7-c7c(cc(O)c(O)c7O)C(=O)O[C@H]6[C@@H]5OC(=O)c5cc(O)c(O)c(O)c5)cc(O)c(O)c4O)c(O)c3O)C(=O)O[C@@H]2[C@@H](OC(=O)c2cc(O)c(O)c(O)c2)[C@@H]1O)c1cc(O)c(O)c(O)c1`, for which the CC50 was 25 µM in series [1], 21 µM in series [4] and 21 µM in series [6]. Besides, the CC50 at 48 h in series [2], in series [3] and in series [5] was > 116 µM in each case.

For `COc1cccc2c1C(=O)c1c(O)c3c(c(O)c1C2=O)C[C@@](O)(C(=O)CO)C[C@@H]3O[C@H]1C[C@H](N)[C@H](O)[C@H](C)O1` [DOXORUBICIN], the CC50 was found to be 0.7 µM in series [1] and 0.1 µM in series [6]. Also, the CC50 at 48 h in series [2], in series [3] and in series [5] was > 10 µM throughout.

On to `O=c1[nH]cc(F)c(=O)[nH]1` [FLUOROURACIL], for which the figures for the CC50 in series [1], in series [4] and in series [6] were 262 µM, 47 µM and 25 µM, respectively. Besides, the CC50 at 48 h in series [2], in series [3] and in series [5] was > 1000 µM in each case.
